Values after ≈ are worked out from the molar mass of the structure shown. Like-named read-outs stand apart in the source and are kept apart here.
What was measured:
[1] = tested on: SW480 cells; assay: MTT assay, SW480; assay type: cell-based, human; conditions: for IC50: Homo sapiens, SW480, 72 h, human primary colon cancer, 72 h, MTT, mean ± SD; for SI SW480: SI = IC50 for normal cell line (HaCaT)/IC50 cancer cell line
[2] = tested on: SW620 cells; assay: MTT assay, SW620; assay type: cell-based, human; conditions: for IC50: Homo sapiens, SW-620, 72 h, human metastatic colon cancer, 72 h, MTT, mean ± SD; for SI SW620: SI = IC50 for normal cell line (HaCaT)/IC50 cancer cell line
[3] = tested on: PC3 cells; assay: MTT assay, PC3; assay type: cell-based, human; conditions: for IC50: Homo sapiens, PC-3, 72 h, human metastatic prostate cancer, 72 h, MTT, mean ± SD; for SI PC3: SI = IC50 for normal cell line (HaCaT)/IC50 cancer cell line
[4] = tested on: HaCaT cells; assay: MTT assay, HaCaT normal cells; assay type: cell-based; conditions: human immortal keratinocyte cell line, 72 h, mean ± SD
[5] = tested on: S. aureus NCTC 4163; assay: MIC, twofold microdilution, standard strain; assay type: cell-based; conditions: Staphylococcus aureus, NCTC4163; 18 h of treatment; read-out: MIC S. aureus NCTC 4163
[6] = tested on: S. aureus ATCC 25923; assay: MIC, twofold microdilution, standard strain; assay type: cell-based; conditions: Staphylococcus aureus, ATCC25923; 18 h of treatment; read-out: MIC S. aureus ATCC 25923
[7] = tested on: S. aureus ATCC 6538; assay: MIC, twofold microdilution, standard strain; assay type: cell-based; conditions: Staphylococcus aureus, ATCC6538; 18 h of treatment; read-out: MIC S. aureus ATCC 6538
[8] = tested on: S. aureus ATCC 29213; assay: MIC, twofold microdilution, standard strain; assay type: cell-based; conditions: Staphylococcus aureus, ATCC29213; 18 h of treatment; read-out: MIC S. aureus ATCC 29213
[9] = tested on: S. epidermidis ATCC 12228; assay: MIC, twofold microdilution, standard strain; assay type: cell-based; conditions: Staphylococcus epidermidis, ATCC12228; 18 h of treatment; read-out: MIC S. epidermidis ATCC 12228
[10] = tested on: S. epidermidis ATCC 35984; assay: MIC, twofold microdilution, standard strain; assay type: cell-based; conditions: Staphylococcus epidermidis, ATCC35984; 18 h of treatment; read-out: MIC S. epidermidis ATCC 35984
[11] = tested on: E. coli ATCC 25922; assay: MIC, twofold microdilution, standard strain; assay type: cell-based, Escherichia coli; conditions: 18 h of treatment; for MIC: Escherichia coli, ATCC25922, read-out: MIC E. coli ATCC 25922
[12] = tested on: P. aeruginosa ATCC 27853; assay: MIC, twofold microdilution, standard strain; assay type: cell-based; conditions: Pseudomonas aeruginosa, ATCC27853; 18 h of treatment; read-out: MIC P. aeruginosa ATCC 27853
[13] = tested on: S. epidermidis KR 4047 825/19; assay: MIC, clinical S. epidermidis strain; assay type: cell-based; conditions: Staphylococcus epidermidis, KR4047825/19, quinolone-resistant, 18 h of treatment
[14] = tested on: S. epidermidis KR 4243 829/19; assay: MIC, clinical S. epidermidis strain; assay type: cell-based; conditions: Staphylococcus epidermidis, KR4243829/19, quinolone-susceptible, 18 h of treatment
[15] = tested on: S. epidermidis KR 4313 834/19; assay: MIC, clinical S. epidermidis strain; assay type: cell-based; conditions: Staphylococcus epidermidis, KR4313834/19, quinolone-susceptible, 18 h of treatment
[16] = tested on: S. epidermidis KR 4358/2 840/19; assay: MIC, clinical S. epidermidis strain; assay type: cell-based; conditions: Staphylococcus epidermidis, KR4358/2840/19; clinical S. epidermidis, quinolone-susceptible, 18 h of treatment; read-out: MIC KR 4358/2 840/19
[17] = tested on: S. epidermidis T 5253 845/19; assay: MIC, clinical S. epidermidis strain; assay type: cell-based; conditions: Staphylococcus epidermidis, T5253845/19, quinolone-resistant, 18 h of treatment
[18] = tested on: S. epidermidis T 5399 848/19; assay: MIC, clinical S. epidermidis strain; assay type: cell-based; conditions: Staphylococcus epidermidis, T5399848/19, quinolone-susceptible, 18 h of treatment
[19] = tested on: S. epidermidis T 5501 851/19; assay: MIC, clinical S. epidermidis strain; assay type: cell-based; conditions: Staphylococcus epidermidis, T5501851/19, read-out: MIC T 5501 851/19, quinolone-susceptible, 18 h of treatment
[20] = tested on: M. tuberculosis H37Rv; assay: MABA (microplate Alamar blue assay) MIC; assay type: cell-based; conditions: Mycobacterium tuberculosis, 336 h, 2 weeks of treatment, read-out: MIC M. tuberculosis H37Rv
[21] = tested on: M. tuberculosis Spec. 192 (Sensitive to Tuberculostatics); assay: MABA (microplate Alamar blue assay) MIC; assay type: cell-based; conditions: Mycobacterium tuberculosis, 336 h; 2 weeks of treatment; read-out: MIC M. tuberculosis Spec. 192 (Sensitive to Tuberculostatics)
[22] = target: T1, S. aureus topoisomerase IV (Staphylococcus aureus, UniProt P0C1S7+P0C1U9); assay: S. aureus topoisomerase IV decatenation assay; assay type: biochemical
T1 construct: purchased Inspiralis
T1 sequence (P0C1U9 whole entry): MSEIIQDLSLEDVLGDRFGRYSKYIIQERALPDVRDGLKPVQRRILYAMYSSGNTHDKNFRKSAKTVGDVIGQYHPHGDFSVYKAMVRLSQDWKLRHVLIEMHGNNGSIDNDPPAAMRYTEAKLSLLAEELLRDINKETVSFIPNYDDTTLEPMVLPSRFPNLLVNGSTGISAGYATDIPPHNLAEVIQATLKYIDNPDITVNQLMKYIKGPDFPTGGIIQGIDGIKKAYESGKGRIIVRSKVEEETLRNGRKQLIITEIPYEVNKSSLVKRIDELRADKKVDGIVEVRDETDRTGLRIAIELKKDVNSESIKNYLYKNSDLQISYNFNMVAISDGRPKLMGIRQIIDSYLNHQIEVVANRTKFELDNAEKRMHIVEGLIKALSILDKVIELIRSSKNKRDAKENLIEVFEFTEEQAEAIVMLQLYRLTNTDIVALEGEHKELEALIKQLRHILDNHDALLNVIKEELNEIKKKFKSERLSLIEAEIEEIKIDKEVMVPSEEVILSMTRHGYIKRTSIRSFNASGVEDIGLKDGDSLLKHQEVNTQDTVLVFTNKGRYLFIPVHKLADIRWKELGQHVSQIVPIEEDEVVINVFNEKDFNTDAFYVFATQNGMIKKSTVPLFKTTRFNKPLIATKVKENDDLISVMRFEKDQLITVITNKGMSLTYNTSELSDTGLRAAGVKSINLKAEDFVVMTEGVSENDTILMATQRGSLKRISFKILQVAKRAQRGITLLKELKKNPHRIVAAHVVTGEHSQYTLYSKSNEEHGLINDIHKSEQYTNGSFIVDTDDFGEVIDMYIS
T1 sequence (P0C1S7 whole entry): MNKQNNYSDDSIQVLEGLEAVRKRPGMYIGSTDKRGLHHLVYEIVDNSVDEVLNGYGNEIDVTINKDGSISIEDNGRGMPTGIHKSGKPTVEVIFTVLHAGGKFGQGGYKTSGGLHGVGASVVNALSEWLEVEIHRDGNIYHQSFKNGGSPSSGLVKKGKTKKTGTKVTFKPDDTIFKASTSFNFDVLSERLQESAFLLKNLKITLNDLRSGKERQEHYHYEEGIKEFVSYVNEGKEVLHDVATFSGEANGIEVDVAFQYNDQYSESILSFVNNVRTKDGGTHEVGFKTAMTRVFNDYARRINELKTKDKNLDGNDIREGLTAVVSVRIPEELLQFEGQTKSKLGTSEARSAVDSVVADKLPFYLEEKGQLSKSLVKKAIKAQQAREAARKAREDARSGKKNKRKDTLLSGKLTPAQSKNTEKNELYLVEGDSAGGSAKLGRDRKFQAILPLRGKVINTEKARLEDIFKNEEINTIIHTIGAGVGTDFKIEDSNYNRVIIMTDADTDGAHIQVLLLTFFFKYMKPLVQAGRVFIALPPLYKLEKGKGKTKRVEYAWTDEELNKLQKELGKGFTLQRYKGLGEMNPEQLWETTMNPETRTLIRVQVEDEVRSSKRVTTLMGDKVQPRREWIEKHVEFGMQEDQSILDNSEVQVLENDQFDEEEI
Protocol: The assay was performed using S. aureus topoisomerase IV […] kit (Inspiralis). Kinetoplast DNA (kDNA) was the substrate for topoisomerase IV.

[23] = tested on: SW480, SW620, and PC3 cancer cell lines; assay: MTT assay, cancer cell lines as a group; assay type: cell-based, human; conditions: 72 h, all three cancer cell lines (SW480, SW620, PC3), read-out: IC50 against all tested cancer cell lines
[24] = tested on: standard staphylococci (S. aureus, S. epidermidis); assay: MIC, standard Gram-positive strains as a group; assay type: cell-based; conditions: Staphylococcus aureus; range over standard Gram-positive strains; read-out: MIC against standard staphylococci
[25] = tested on: quinolone-susceptible clinical coagulase-negative staphylococci; assay: MIC, quinolone-susceptible clinical isolates as a group; assay type: cell-based; conditions: Staphylococcus epidermidis; five quinolone-susceptible isolates; read-out: MIC against quinolone-susceptible clinical isolates
[26] = target: S. aureus DNA gyrase (Staphylococcus aureus, UniProt P0A0K8+P20831); assay: biochemical
S. aureus DNA gyrase, sequence (P20831 whole entry): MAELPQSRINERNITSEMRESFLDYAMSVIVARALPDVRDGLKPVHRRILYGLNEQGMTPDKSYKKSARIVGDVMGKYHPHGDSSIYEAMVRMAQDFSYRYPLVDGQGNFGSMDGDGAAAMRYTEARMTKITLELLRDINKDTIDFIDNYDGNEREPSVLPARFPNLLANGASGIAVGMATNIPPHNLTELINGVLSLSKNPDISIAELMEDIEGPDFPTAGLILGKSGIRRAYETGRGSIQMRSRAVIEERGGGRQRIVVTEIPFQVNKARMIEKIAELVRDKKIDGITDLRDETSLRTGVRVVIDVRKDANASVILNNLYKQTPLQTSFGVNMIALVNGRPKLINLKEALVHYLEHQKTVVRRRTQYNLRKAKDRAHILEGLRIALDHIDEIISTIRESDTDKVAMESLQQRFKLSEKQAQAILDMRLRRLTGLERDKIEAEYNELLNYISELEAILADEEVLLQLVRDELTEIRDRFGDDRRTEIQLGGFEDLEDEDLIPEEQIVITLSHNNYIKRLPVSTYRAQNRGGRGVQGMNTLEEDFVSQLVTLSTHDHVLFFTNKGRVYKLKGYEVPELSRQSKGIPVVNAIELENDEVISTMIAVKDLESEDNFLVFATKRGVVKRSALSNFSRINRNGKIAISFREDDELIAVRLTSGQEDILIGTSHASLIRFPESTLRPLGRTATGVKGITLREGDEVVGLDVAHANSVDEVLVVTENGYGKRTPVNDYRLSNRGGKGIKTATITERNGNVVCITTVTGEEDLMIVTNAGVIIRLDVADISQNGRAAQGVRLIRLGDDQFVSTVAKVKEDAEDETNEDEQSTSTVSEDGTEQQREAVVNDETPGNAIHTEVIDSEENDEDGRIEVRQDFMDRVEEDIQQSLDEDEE
S. aureus DNA gyrase, sequence (P0A0K8 whole entry): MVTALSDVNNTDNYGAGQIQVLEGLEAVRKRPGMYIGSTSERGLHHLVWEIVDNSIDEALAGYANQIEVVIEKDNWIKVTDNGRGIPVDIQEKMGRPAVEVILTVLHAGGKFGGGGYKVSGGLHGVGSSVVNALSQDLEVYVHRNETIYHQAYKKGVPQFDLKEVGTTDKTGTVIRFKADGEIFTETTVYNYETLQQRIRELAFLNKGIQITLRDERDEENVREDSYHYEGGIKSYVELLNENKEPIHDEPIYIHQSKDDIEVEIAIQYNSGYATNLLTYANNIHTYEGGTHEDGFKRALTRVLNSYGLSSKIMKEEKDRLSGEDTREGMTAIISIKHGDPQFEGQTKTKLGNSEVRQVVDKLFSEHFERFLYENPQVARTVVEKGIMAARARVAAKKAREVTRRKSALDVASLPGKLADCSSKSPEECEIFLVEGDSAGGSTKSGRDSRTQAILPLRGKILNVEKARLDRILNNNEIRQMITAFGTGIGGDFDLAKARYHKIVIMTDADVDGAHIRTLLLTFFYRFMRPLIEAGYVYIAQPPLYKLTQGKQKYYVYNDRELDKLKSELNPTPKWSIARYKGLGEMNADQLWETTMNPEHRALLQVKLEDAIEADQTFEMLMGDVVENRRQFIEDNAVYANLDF

SMILES	IC50 [1]	SI SW480 [1]	IC50 [2]	SI SW620 [2]	IC50 [3]	SI PC3 [3]	IC50 [4]	MIC [5]	MIC [6]	MIC [7]	MIC [8]	MIC [9]	MIC [10]	MIC E. coli ATCC 25922 [11]	MIC [11]	MIC [12]	MIC [13]	MIC [14]	MIC [15]	MIC [16]	further results
CC/C=C\C/C=C\C/C=C\C/C=C\C/C=C\C/C=C\CCC(=O)N1CCCC2CN(c3c(F)cc4c(=O)c(C(=O)O)cn(C5CC5)c4c3OC)CC21 (stereo not shown) [Compound 8m, 1-Cyclopropyl-7-{1-(4Z,7Z,10Z,13Z,16Z,19Z)-docosa-4,7,10,13,16,19-hexaenoyl-octahydro-pyrrolo[3,4-b]pyridin-6-yl}-6-fluoro-8-methoxy-4-oxo-1,4-dihydro-quinoline-3-carboxylic acid]	6.2 ± 1.3 µM	13.1	9.4 ± 3.7 µM	8.7	5.6 ± 1.9 µM	14.5	81.4 ± 3.2 µM	2 µg/mL (≈ 2.81 µM)	2 µg/mL (≈ 2.81 µM)	2 µg/mL (≈ 2.81 µM)	4 µg/mL (≈ 5.62 µM)	4 µg/mL (≈ 5.62 µM)	2 µg/mL (≈ 2.81 µM)	2 to 16 µg/mL	2 µg/mL (≈ 2.81 µM)	> 512 µg/mL	512 µg/mL (≈ 719 µM)	4 µg/mL (≈ 5.62 µM)	4 µg/mL (≈ 5.62 µM)	4 µg/mL (≈ 5.62 µM)	MIC [17]: 512 µg/mL (≈ 719 µM); MIC [18]: 4 µg/mL (≈ 5.62 µM); MIC [19]: 4 µg/mL (≈ 5.62 µM); MIC [20]: 8 µg/mL (≈ 11.2 µM); MIC [21]: 4 µg/mL (≈ 5.62 µM); IC50 [22]: > 89.9 µM; IC50 ([23]; Homo sapiens): 5 to 10 µM; IC50 [23]: 5.6 to 10.4 µM; MIC [24]: 2 to 4 µg/mL (≈ 2.81 to 5.62 µM); MIC [25]: 4 µg/mL (≈ 5.62 µM); IC50 [26]: > 89.9 µM
CCCCC/C=C\C/C=C\C/C=C\C/C=C\CCCC(=O)N1CCCC2CN(c3c(F)cc4c(=O)c(C(=O)O)cn(C5CC5)c4c3OC)CC21 (stereo not shown) [Compound 13m, 1-Cyclopropyl-6-fluoro-7-{1-(5Z,8Z,11Z,14Z)-icosa-5,8,11,14-tetraenoyl-octahydro-pyrrolo[3,4-b]pyridin-6-yl}-8-methoxy-4-oxo-1,4-dihydro-quinoline-3-carboxylic acid]	32.3 ± 4.1 µM	2.9	39.4 ± 4.1 µM	2.4	28.3 ± 2.8 µM	3.3	93.3 ± 2.8 µM	16 µg/mL (≈ 23.3 µM)	16 µg/mL (≈ 23.3 µM)	16 µg/mL (≈ 23.3 µM)	16 µg/mL (≈ 23.3 µM)	16 µg/mL (≈ 23.3 µM)	16 µg/mL (≈ 23.3 µM)	2 to 16 µg/mL	16 µg/mL (≈ 23.3 µM)	> 512 µg/mL	256 µg/mL (≈ 372 µM)	4 µg/mL (≈ 5.81 µM)	8 µg/mL (≈ 11.6 µM)	8 µg/mL (≈ 11.6 µM)	MIC [17]: 512 µg/mL (≈ 744 µM); MIC [18]: 4 µg/mL (≈ 5.81 µM); MIC [19]: 8 µg/mL (≈ 11.6 µM); MIC [20]: 4 µg/mL (≈ 5.81 µM); MIC [21]: 4 µg/mL (≈ 5.81 µM); MIC [24]: 8 to 32 µg/mL (≈ 11.6 to 46.5 µM); MIC [25]: 2 to 8 µg/mL (≈ 2.91 to 11.6 µM)

— PMC9181188 (International Journal of Molecular Sciences, 2022)
